System: excised human nerve tissue
Experiment: Phage display selection on excised human nerve tissue (Nerve2, Nerve3), NextGen sequence counts
Assay type: binding
Settings: unique sequence count (relative enrichment)
Method: Several m13 phage libraries were constructed expressing randomized variants of a parent peptide (QVPWEEPYYVVKKS-SGGL; SEQ ID NO: 576). In particular, the first 14 amino acids of the parent peptide were randomized using degenerate oligonucleotide synthesis to obtain a diverse set of peptides with a mutation rate of about 50% per residue.
To accomplish this, synthesis was carried out by the XXK codon design approach, where X is any base and K is G or T. To bias synthesis towards the parent sequence, synthesis was carried out at each X position with a mixture of about 70%-85% of the parent nucleotide and 15-30% of the remaining 3 nucleotides. The resulting molecules were inserted into fADL-1e (Antibody Design Laboratories), which is a type 3 phage display vector having a cloning site on the N-terminal side of the full-length gene III protein. The fusion proteins are directed to the periplasm by the PelB leader peptide, which is inserted in the vector […].
Collectively, the phage display libraries used in the screens comprised about 600 million peptides, with sequencing analysis confirming a mutation rate of about 50% per residue.
Phage libraries were independently processed, as follows, with five biological samples: two independent samples of excised human nerve tissue, one sample of a human nerve extract, and two independent samples of human muscle tissue, as follows:
Excised Human Nerve Tissue: For each of the two independent samples, phage were processed through multiple cycles of selection, with representative phage being isolated and sequenced after each selection cycle. Specifically, for selection using human nerve tissue, a sample of […] tissue (2 mm by 2 mm) was washed prior to mixing and incubation with a phage library. After incubation, the mixture (containing mostly intact nerves with phage particles that had variable affinity for nerves) was centrifuged and the nerve pellet washed multiple times with PBS to remove phage with little or no affinity for nerve tissue. The pellet was homogenized and plated for titering and reamplification. Phage that were bound at each round were sequenced. NextGen sequencing of pools after 2, 3 and 4 rounds of selection were used to isolate candidate sequences that were further analyzed using bioinformatics.
NextGen sequencing of pools after 2, 3 and 4 rounds of selection were used to isolate candidate sequences from each of the five samples. These five data sets were then analyzed as described in the next section.
Peptide and vector sequences were translated starting at the first start codon in the nucleotide sequence. […] Trimmed peptides with identical sequences were combined and quantified according to their frequency (count).
Following processing, an R script was written to merge the unique peptide sequences (with counts 6 or greater) from the 5 different data sets to analyze the overlap between nerve and muscle binding activity.
For the single Nerve2, Nerve3, and Plated Nerve2 (pn2) subsets, the number of counts for each group was set at a threshold giving rise to at least 100 peptides. […] As highlighted in yellow in FIG. 1B, the representative group also included 6 unique peptides overlapping between nerve2 and nerve3, 200 unique peptides overlapping between nerve2 and plated nerve2 (at least 60 counts), 4 unique peptides overlapping between nerve3 and plated nerve2. Finally, as highlighted in green in FIG. 1B, the representative group also included […] common to the nerve2, nerve3, and plated nerve2 sets.

[1] = peptides common to Nerve2, Nerve3 and Plated Nerve 2 sets
[2] = peptides overlapping between Nerve2 and Plated Nerve2

21 (HLPVEYPFYVFKNS) [compound 21]
Count [1]: 131

183 (DVLLARTYYFGEFP) [compound 183]
Count [2]: 74

228 (QIPWGETTAGIKKL) [compound 228]
Count [2]: 64

37 (HVALEQPYYAVKES) [compound 37]
Count (peptides overlapping between Nerve3 and Plated Nerve 2): 342

88 (QLPSQAQNYYVTAS) [compound 88]
Count [2]: 137

123 (HRPWEEPYYVAKQS) [compound 123]
Count [2]: 104

77 (QFPGQALSFVHEKS) [compound 77]
Count [2]: 152

31 (HLPWEGQLNIGNKS) [compound 31]
Count (peptides overlapping between Nerve2 and Nerve3): 357

397 (TVPAHNPYYLVKQT) [compound 397]
Count (Nerve3 only): 185

8 (QDPWVTRYYIVKKS) [compound 8]
Count [1]: 304

122 (QLTSAEASYVGKQS) [compound 122]
Count [2]: 105

168 (DVRWSDPHDRITKS) [compound 168]
Count [2]: 77

163 (QIESGEPYHDQKHP) [compound 163]
Count [2]: 79

430 (QLPWGKPYNVVVYS) [compound 430]
Count (Nerve3 only): 101

185 (LFAWAEANNVMKNS) [compound 185]
Count [2]: 74

405 (HVPWAGSSDVLKVT) [compound 405]
Count (Nerve3 only): 160

435 (QLLWDPPSYFVNNS) [compound 435]
Count (Nerve3 only): 92

335 (QLHWGQPYSILNKS) [compound 335]
Count (Nerve2 only): 10

192 (HAHGQETYFLVKQS) [compound 192]
Count [2]: 71

281 (QVWGEVPLSGAKRF) [compound 281]
Count (Nerve2 only): 12

315 (HVPRVDHLYVETKS) [compound 315]
Count (Nerve2 only): 10

372 (QVPFAHPYYVVNMS) [compound 372]
Count (Nerve3 only): 288

402 (QIPLKTPYNVVKKF) [compound 402]
Count (Nerve3 only): 171

254 (NVLSEQPGYVMEYL) [compound 254]
Count (Nerve2 only): 14

379 (RIHLYQPYSILKNY) [compound 379]
Count (Nerve3 only): 258

288 (HVAWDGAYNLVQTT) [compound 288]
Count (Nerve2 only): 11

11 (QVPRQELYYVSHQF) [compound 11]
Count [1]: 245

97 (QFARTAPYYVQTEY) [compound 97]
Count [2]: 125

399 (QFHCHGACYIVKNS) [compound 399]
Count (Nerve3 only): 180

448 (LFPKYAPHESVKMS) [compound 448]
Count (Nerve3 only): 78

116 (EVPVGDLSYVGKKY) [compound 116]
Count [2]: 108

277 (QIQREEPFYVLKLY) [compound 277]
Count (Nerve2 only): 12

382 (DVPWPNAYNFGIKS) [compound 382]
Count (Nerve3 only): 238

234 (HVPAEPLVYENQKS) [compound 234]
Count [2]: 61

370 (HFRWDEPYYIANKA) [compound 370]
Count (Nerve3 only): 300

164 (QVRWPEQYYVVNMG) [compound 164]
Count [2]: 79

319 (HVRGAELSYVLTKS) [compound 319]
Count (Nerve2 only): 10

375 (QLRFEGPDNPGVQS) [compound 375]
Count (Nerve3 only): 269

428 (QIPLEEMYYVVRTY) [compound 428]
Count (Nerve3 only): 103

361 (QRPWEQAYFVVRST) [compound 361]
Count (Nerve3 only): 357

113 (NVLSEEPSSRDANV) [compound 113]
Count [2]: 110

317 (HVPYVGAYNGVKKS) [compound 317]
Count (Nerve2 only): 10

148 (YVTSESPYYVHGQP) [compound 148]
Count [2]: 87

184 (HFAGQEHLHFVEIS) [compound 184]
Count [2]: 74

58 (EVPGGVPYYPMKKF) [compound 58]
Count [2]: 201

301 (QSSSVEPYYVLQNS) [compound 301]
Count (Nerve2 only): 11

150 (EDVLHNAYHVETQF) [compound 150]
Count [2]: 85

57 (QVPSHELYFRPKES) [compound 57]
Count [2]: 204

98 (QNPWQKPYTVMKTS) [compound 98]
Count [2]: 123

60 (HVPSKQMNSLAKKS) [compound 60]
Count [2]: 196

202 (QLPWGAPYYVVKNS) [compound 202]
Count [2]: 68

44 (SVPKVHPYYVVNNS) [compound 44]
Count [2]: 333

69 (HVTYDEQKYFVKKS) [compound 69]
Count [2]: 179

409 (LFAGENGYFTVRQF) [compound 409]
Count (Nerve3 only): 139

230 (HIPFAEHDGVVPIS) [compound 230]
Count [2]: 63

225 (NVEWEIPYYFVKKF) [compound 225]
Count [2]: 64

156 (SHPWEKQYDVFNNS) [compound 156]
Count [2]: 81

129 (HIPGDETSYVMKKY) [compound 129]
Count [2]: 100

90 (TSLSGAPFHNANTF) [compound 90]
Count [2]: 134

213 (QVPWKGQYYVVASS) [compound 213]
Count [2]: 66

187 (HVQSANPYYDVRNS) [compound 187]
Count [2]: 72

118 (HVPGQDSYNVVNKF) [compound 118]
Count [2]: 107

241 (HDASGVSYYDRRES) [compound 241]
Count (Nerve2 only): 21

432 (AYLSEQLNYVMKNS) [compound 432]
Count (Nerve3 only): 98

262 (LFRSQAQNVLVISH) [compound 262]
Count (Nerve2 only): 13

296 (QHPMDPTYHVVIKA) [compound 296]
Count (Nerve2 only): 11

227 (QHPVKERDEFWKES) [compound 227]
Count [2]: 64

400 (RLPQHESYIVGKIS) [compound 400]
Count (Nerve3 only): 174

137 (QVTWGEPQYVVYKS) [compound 137]
Count [2]: 94

50 (RLPSDDHNTFGTRS) [compound 50]
Count [2]: 249

16 (HLPSDQPLSVTKIS) [compound 16]
Count [1]: 173

327 (LLPPDEPYYPMKKS) [compound 327]
Count (Nerve2 only): 10

391 (TFQYEQPNLVVKNA) [compound 391]
Count (Nerve3 only): 207

110 (QFPSEASHYVVRNS) [compound 110]
Count [2]: 111

269 (HVAWNEPHHVLLQI) [compound 269]
Count (Nerve2 only): 12

1 (TIPYAEPYYVVRKY) [compound 1]
Count [1]: 711

404 (QFYWDQSNYGEQKP) [compound 404]
Count (Nerve3 only): 161

207 (HDTWKGPYYPANKS) [compound 207]
Count [2]: 67

357 (RIPSVGPYGVVKTF) [compound 357]
Count (Nerve3 only): 391

433 (QASSEAPSYPVVKS) [compound 433]
Count (Nerve3 only): 95

389 (HFSSQESNSGGKKW) [compound 389]
Count (Nerve3 only): 230

258 (HFAWEEVFHVKKNF) [compound 258]
Count (Nerve2 only): 13

439 (HVAWKAPYHFTKNS) [compound 439]
Count (Nerve3 only): 87

368 (HVPLQEADYVLKKF) [compound 368]
Count (Nerve3 only): 315

216 (HSHGQELFYVVTNT) [compound 216]
Count [2]: 65

188 (HVSFDEPYYYVKKS) [compound 188]
Count [2]: 72

232 (EFTWEGLSEGVNEP) [compound 232]
Count [2]: 62

337 (QLPLQYRYYFVDQS) [compound 337]
Count (Nerve2 only): 10

201 (QLTWPKQNYTMTQS) [compound 201]
Count [2]: 69

19 (ATPCSQPCAVVPKF) [compound 19]
Count [1]: 142

427 (FVARNEPFYVVGTS) [compound 427]
Count (Nerve3 only): 104

423 (HLLGDYRFWAFTNA) [compound 423]
Count (Nerve3 only): 109

290 (HVPLEGSYLDDINS) [compound 290]
Count (Nerve2 only): 11

Reference: patent publication US20240207422A1, “NERVE TARGETING PEPTIDE CONJUGATES AND METHODS OF USE” (Alume Biosciences, Inc., priority 2022, published 2024)
